Laboratory results taken from publication PMC10809383, “Synthesis and migrastatic activity of cytochalasin analogues lacking a macrocyclic moiety” (RSC Medicinal Chemistry, 2023).
“Also recorded” adds a separate entry of the source.

Columns and labels:
[1] = test system: human melanoma cell line BLM; experiment: Spheroid invasion assay (migrastatic activity); format: cell-based; conditions: 24 h; for migrastatic activity (cell migration, in words): 10 μM, BLM spheroid invasion; for rel. spheroid area: 10 µM, BLM spheroids in collagen, DMSO control 1.02
Method: Compounds 17, 20, and 22–30 were screened for their migrastatic activity using a spheroid invasion assay with the human melanoma cell line BLM.[46] Spheroids were formed and subsequently treated with cytochalasin analogues at a concentration of 10 μM for 24 h. CytB (1) and CytD (2) served as reference compounds for comparison. There was no significant increase in cell migration observed for any of the compounds tested. […] However, the effect was less profound than that of the reference compounds 1 and 2.
The spheroid invasion assay was performed following a previously published protocol.[63] Briefly, BLM cells were grown as spheroids using 3D Petri Dish (Microtissues). After 2 days of spheroid formation, 1.5 mg mL^−1 collagen solution (rat tail, collagen type I) was prepared (1.5 mg mL^−1 rat-tail collagen, 1× DMEM, 1% (v/v) FBS) and added at the bottom of a 96-well plate. Spheroids were embedded into the collagen (one spheroid per well) and covered with another layer of the gel. Collagen was polymerized at 37 °C and subsequently overlaid with a cultivation medium. Images of spheroids were taken with Leica TCS SP2 microscope (5×/0.15 dry objective; LAS X Life Science Microscope software) immediately after their seeding into collagen and again after 24 h. The area of the spheroids at 0 and 24 h was measured using FiJi (Rasband, W.S., ImageJ, NIH, Bethesda, MD, USA). Cellular invasiveness was determined as an increase in spheroid area within 24 h. Three independent experiments were conducted with at least 8 spheroids analysed in each experiment. Statistical analysis was performed in GraphPad using one-way ANOVA. For numeric data and representative images from this assay, see ESI, ^† Table S1 and Fig. S1.
Table S1: Spheroid invasion assay with BLM cell line at 10 µM concentration, 24 h.
Figure S1: Representative images of BLM cell spheroid invasion assay with or without
inhibitor. Images were taken at 0 h and 24 h. using a Leica TCS SP2 microscope (5x/0.15
dry objective). DMSO (first column) was used as a control. Scale bar 500 µm.

[2] = test system: human fibroblasts (MRC-5); experiment: WST-1 viability assay, MRC-5 cells; format: cell-based; conditions: MRC5, 72 h treatment, WST-1 assay, 2D culture, 0–50 μM
Method: (§1) In addition, the cytotoxic activity of compounds 17, 20, and 22–30 was assessed by the WST-1 viability assay using BLM (human melanoma) and MRC-5 (noncancerous human fibroblasts) cells growing in a monolayer (2D cultures, Table 2) after 72 h of treatment.
(§2) Human cells from melanoma (BLM) and human lung fibroblasts (MRC-5, Merck, USA) were used to evaluate in vitro cytotoxicity of the prepared compounds. The cells were maintained at the exponential phase of growth (passaging done by trypsin–EDTA solution) in DMEM and MEM, for BLM and MRC-5, respectively, with stable L-glutamine and supplemented with 10% fetal bovine serum (Thermo Fisher Scientific, USA). The cells were kept in an incubator at 37 °C, 5% CO2 in the atmosphere, and 95% humidity.
(§3) The compound cytotoxicity was determined by a WST-1 viability assay (Merck, USA). The amount of 5000 BLM and MRC-5 cells were seeded into individual wells of 96-well plates in 100 μL of cell cultivation media and maintained in an incubator for 16 h. After this period, the cells were treated with a concentration series (0–50 μM) of the tested compounds diluted in another 100 μL of cultivation media, which was added to the wells containing cells and incubated for 72 h. Then, BLM and MRC-5 cell viability was evaluated by WST-1 agent (5% v/v solution in phenol red-free DMEM media), i.e., the cell media was discarded and 100 μL of WST-1 solution was added. After 2 h incubation, the absorbance of formazan, derived from the WST-1 tetrazolium salt was determined spectrophotometrically at 450 nm (reference at 650 nm) by a UV-vis spectrophotometer (Bio-Rad, USA). Untreated cells, cells treated only with a vehicle, and cells treated with cytochalasin B (1) and D (2) served as controls. The measurement occurred in three independent repetitions each of which consisted of three technical replicates. The data were plotted as dose–response curves from which the half-maximal inhibitory concentrations (IC50) were calculated using AAT Bioquest.

[3] = test system: human melanoma cells (BLM); experiment: WST-1 viability assay, BLM cells; format: cell-based; conditions: for IC50: Homo sapiens, 72 h treatment, WST-1 assay, 2D culture, 0–50 μM; for selectivity index (SI): MRC-5 versus BLM, 72 h, WST-1
Method: as §1, §2, §3

actin = target: T1, actin (Oryctolagus cuniculus, UniProt P68135); experiment: Actin polymerization assay (pyrene-actin, Actin Polymerization Biochem Kit); format: biochemical; conditions: 10 μM, in vitro
T1 construct: purchased Cytoskeleton, Inc, Denver, CO
Method: To further ascertain the compounds' interference with actin polymerization, the active compounds, along with CytB (1) as a positive control and compound 26 as a negative control, were subjected to an in vitro actin polymerization assay (Fig. 2B). […] This correlation between actin inhibitory activity and migrastatic effect underscores the pivotal role of actin polymerization inhibition in mediating the observed migrastatic activity.
Actin polymerization assay was performed using Actin Polymerization Biochem Kit™ (Cytoskeleton, Inc, Denver, CO) according to the manufacturer protocol. Briefly, 25 μL of G-buffer containing labelled pyrene-actin (0.4 mg mL^−1) and 2.48 μL of either DMSO (10 μM, control) or inhibitor (10 μM) was added in […] well plate. Actin polymerization was initiated by the addition of 2.48 μL of 10× actin polymerization buffer and analysed in time until fluorescent signal plateau was reached using a spectrophotometer (Infinite 200 PRO, Tecan Life Sciences, Tecan Group Ltd., Zürich, CHE). The fluorescence emission intensity of actin polymerization was measured at 420 nm and 360 nm was used as excitation wavelength. Statistical analysis was performed in GraphPad using one-way ANOVA. Measurements were performed in three independent repetitions each consisting of at least three technical replicates. For a representative graph from this assay, see ESI, ^† Fig. S2.

[4] = test system: HT1080 fibrosarcoma cells; experiment: Fluorescence microscopy of actin cytoskeleton (SPY650-FastAct time-lapse); format: cell-based; conditions: for effect on the actin cytoskeleton: 10 μM
Method: Next, we conducted experiments to assess the impact of compound 24, CytB (1) and CytD (2) on the actin cytoskeleton using fluorescence microscopy in HT1080 fibrosarcoma cells (Fig. 3). […] Therefore, we increased the concentration up to 50 μM.
HT1080 cells were seeded into 12-well glass bottom plate and stained with SPY650-FastAct™ following manufacturer's protocol. Untreated cells (control) were imaged every 20 s for 15 min using Leica TCS SP2 microscope (40×/0.6 dry objective). Afterwards, an inhibitor (compound 24 at 10 μM; 50 μM or compound 1 and 2 at 10 μM) was added into the same well and its effect was recorded for 15 min (20 s/image). All video recordings were analyzed using FiJi (Rasband, W.S., ImageJ, NIH, Bethesda, MD, USA).

## CC1=C[C@H](CCOCCc2ccccc2)[C@]2(CO)C(=O)N[C@@H](Cc3ccccc3)[C@@H]2[C@@H]1C [Compound 30, (3S,3aR,4S,7S,7aS)-3-Benzyl-7a-(hydroxymethyl)-4,5-dimethyl-7-(2-phenethoxyethyl)-2,3,3a,4,7,7a-hexahydro-1H-isoindol-1-one]
[1]
  migrastatic activity (cell migration, in words): significant decrease in cell migration; also recorded: modest migrastatic activity
  rel. spheroid area: 0.50
[2]
  IC50: > 50 µM
[3]
  IC50: > 50 µM
actin
  inhibition of actin polymerization (in words): inhibit actin polymerization

## C=C1[C@@H](C)[C@H]2[C@H](Cc3ccccc3)NC(=O)[C@@]2(C(=O)OC)[C@@H](CCOCCc2ccccc2)[C@@H]1O [Compound 24, Methyl (1S,3aS,4R,5S,7S,7aR)-1-benzyl-5-hydroxy-7-methyl-6-methylene-3-oxo-4-(2-phenethoxyethyl)octahydro-3aH-isoindole-3a-carboxylate]
[4]; after 5 min
  effect on the actin cytoskeleton: observable alterations became apparent
[4]; within 2 min of addition
  effect on the actin cytoskeleton: no effect was observed
[4]; 50 μM, after 2 min
  change in cell morphology: visible change in cell morphology was observed
[1]
  migrastatic activity (cell migration, in words): significant in vitro migrastatic activity; also recorded: significant decrease in cell migration; also recorded: most potent migrastatic activity
  rel. spheroid area: 0.46
[2]
  IC50: > 50 µM
[3]
  IC50: > 50 µM
[3]; WST-1, up to 50 μM, cell line not given
  cytotoxicity (in words): non-cytotoxic
actin
  inhibition of actin polymerization (in words): inhibit actin polymerization; also recorded: inhibition of actin polymerization

## COC(=O)[C@@]12C(=O)N[C@@H](Cc3ccccc3)[C@@H]1[C@H](C)C(C)=C[C@@H]2CCCOCc1ccccc1 [Compound 20, Methyl (1S,3aR,4S,7S,7aR)-1-benzyl-4-(3-(benzyloxy)propyl)-6,7-dimethyl-3-oxo-1,2,3,4,7,7a-hexahydro-3aH-isoindole-3a-carboxylate]
[1]
  migrastatic activity (cell migration, in words): significant decrease in cell migration; also recorded: modest migrastatic activity
  rel. spheroid area: 0.56
[2]
  IC50: 28.6 ± 1.86 µM
[3]
  IC50: 28.4 ± 0.59 µM
  selectivity index (SI): 1.0
actin
  inhibition of actin polymerization (in words): inhibit actin polymerization

## C=C1[C@@H](C)[C@H]2[C@H](Cc3ccccc3)NC(=O)[C@]23OC(=O)/C=C/[C@H](O)CCC[C@@H](C)C/C=C/[C@H]3[C@@H]1O [CytB (1), cytochalasin B, reference compound]
[4]; within 2 min of addition
  effect on the actin cytoskeleton: profound effect on the actin cytoskeleton
[1]
  rel. spheroid area: 0.26
[2]
  IC50: 0.27 ± 0.01 µM
[3]
  IC50: 26.2 ± 0.55 µM
  selectivity index (SI): 0.01
